{"source": "patent US9889129B2", "about": "“Method of modulating ribonucleotide reductase” (Case Western Reserve University, priority 2012, dated 2018)", "key": {"[1]": {"target": "T1, RR (Homo sapiens, UniProt P23921)", "T1 sequence (P23921 1-792)": "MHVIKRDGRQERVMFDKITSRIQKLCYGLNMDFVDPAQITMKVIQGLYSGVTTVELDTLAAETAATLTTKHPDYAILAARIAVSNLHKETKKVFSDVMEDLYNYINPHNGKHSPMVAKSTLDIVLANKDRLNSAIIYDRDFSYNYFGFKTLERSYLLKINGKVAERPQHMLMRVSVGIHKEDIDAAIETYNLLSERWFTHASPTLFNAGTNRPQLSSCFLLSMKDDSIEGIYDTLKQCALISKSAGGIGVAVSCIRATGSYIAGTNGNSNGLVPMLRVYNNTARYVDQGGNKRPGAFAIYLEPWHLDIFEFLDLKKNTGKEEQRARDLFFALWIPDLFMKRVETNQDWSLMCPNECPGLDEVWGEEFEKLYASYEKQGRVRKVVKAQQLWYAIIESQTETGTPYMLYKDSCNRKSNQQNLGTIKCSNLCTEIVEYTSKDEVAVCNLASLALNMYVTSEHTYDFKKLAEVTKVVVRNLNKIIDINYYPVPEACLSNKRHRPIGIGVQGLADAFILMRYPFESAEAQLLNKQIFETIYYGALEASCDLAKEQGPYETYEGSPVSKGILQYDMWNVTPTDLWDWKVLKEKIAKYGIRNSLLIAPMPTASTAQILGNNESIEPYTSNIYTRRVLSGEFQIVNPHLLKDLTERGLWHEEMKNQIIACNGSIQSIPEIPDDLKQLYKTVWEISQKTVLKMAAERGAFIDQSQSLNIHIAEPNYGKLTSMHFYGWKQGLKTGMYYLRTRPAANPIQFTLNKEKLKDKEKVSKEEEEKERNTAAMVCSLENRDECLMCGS", "experiment": "RR inhibition by ligands with anticancer properties (Table 4)"}, "[2]": {"tested_on": "ribonucleotide reductase activity", "experiment": "DNA synthesis assay", "excerpt": "The IC50 of a drug can be determined by constructing a\ndose-response curve and examining the effect of different concentrations of a candidate agent on cell growth and/or ribonucleotide reductase enzyme activity. IC50 values can be calculated for a given compound by determining the concentration needed to inhibit half of the maximum biological response of the compound."}, "[3]": {"tested_on": "A549 non-small cell lung cells; pancreatic cells (Panc-1); colon cells (HCT-116)", "experiment": "MTT Assay II", "assay_type": "cell-based", "text": "We conducted an MTT assay to measure cell metabolism as a surrogate for cell number using A549, Non-Small Cell Lung cells; pancreatic cells (Panc-1); and colon cells (HCT-116)."}, "[4]": {"tested_on": "MDA-MB-231 human breast carcinoma cell line", "experiment": "Growth inhibition studies on MDA-MB-231", "assay_type": "cell-based", "text": "Growth inhibition studies on MDA-MB-231 human breast carcinoma cell line in the presence of gemcitabine (F2CDP-red) or cis-platin (CDDP-blue) alone (solid lines), or in combination with a non-toxic does of compound 2 (dashed lines).\nGrowth of the MDA-MB-231 cancer cell line is inhibited by compound 3."}, "[5]": {"tested_on": "A549 non-small cell lung cells; 231 triple negative breast cells; LN229", "experiment": "MTT Assay I", "assay_type": "cell-based", "settings": "continuous doses for three days; for pIC50: 72 h, range over A549, 231, LN229; for ACTIVITY: A549, 231, LN229", "procedure": "We conducted an MTT assay to measure cell metabolism as a surrogate for cell number using A549, Non-Small Cell Lung cells; 231, Triple negative breast cells; and LN229. All values are relative to untreated controls, corrected for any MTT absorbance due to media alone.\nThe cells were treated with continuous doses of the indicated drugs for three days, at which time the MTT assay was run. The control is listed as a dose of 0.1 uM because we plot on a log scale and wish to avoid taking the log of 0 in the calculations."}, "[6]": {"settings": "A549, Panc-1, HCT-116, read-out: IC50"}}, "note": "pIC50: −log10 of the molar value. Where two headings read alike, the source gives them in different places.", "data": [{"molecule": "OC(COc1ccc2c(c1)CCC2)CN1CCN(Cc2ccccc2)CC1", "note": "(stereo not shown) [Compound 4]", "values": [{"measurement": "pIC50", "setting": "[1]", "result": "5.00 to 5.30"}]}, {"molecule": "CCCCCCCCCCCCC(=O)NCC(=O)NC(CCCCN)C(=O)OC", "note": "(stereo not shown) [Compound 5]", "values": [{"measurement": "pIC50", "setting": "[1]", "result": "5.00 to 5.30"}]}, {"molecule": "Cc1c2c(c(O)c3c(O)ccc(Cl)c13)C(=O)C1(O)C(=O)C(C(=O)O)=C(O)C(N(C)C)C1C2", "note": "(stereo not shown) [Drug 4]", "values": [{"measurement": "pIC50", "setting": "[2]", "result": "4.00 to 4.30"}]}, {"molecule": "O=C(CCCCCCCCC(=O)N/N=C/c1c(O)ccc2ccccc12)N/N=C/c1c(O)ccc2ccccc12", "note": "[Compound 1]", "values": [{"measurement": "pIC50", "setting": "[3]; [6]", "result": "5.70 to 6.22"}, {"measurement": "pIC50", "setting": "[1]", "result": "5.70 to 6.22"}]}, {"molecule": "OC(COc1ccc(OCC(O)CN2CCN(C3c4ccccc4-c4ccccc43)CC2)cc1)CN1CCN(C2c3ccccc3-c3ccccc32)CC1", "note": "(stereo not shown) [Compound 2]", "values": [{"measurement": "effect on cytotoxicity of gemcitabine or cis-platin", "setting": "[4]; combination with a non-toxic dose of compound 2", "result": "increases cytotoxicity of gemcitabine of cis-platin"}, {"measurement": "pIC50", "setting": "[3]; [6]", "result": "5.10 to 5.52"}]}, {"molecule": "Nc1ccn([C@@H]2O[C@H](CO)[C@@H](O)C2(F)F)c(=O)n1", "note": "[Gemcitabien, reference compound]", "values": [{"measurement": "pIC50", "setting": "[3]; A549, Panc-1, HCT-116, read-out: IC50s", "result": "6.30 to 7.00"}]}, {"molecule": "OC(COc1ccc(OCC(O)CN2CCN(C3c4ccccc4-c4ccccc43)CC2)cc1)CN1CCN(C2c3ccccc3-c3ccccc32)CC1", "note": "(stereo not shown) [Drug 2]", "values": [{"measurement": "pIC50", "setting": "[5]", "result": "4.92 to 5.52"}, {"measurement": "ACTIVITY", "setting": "[5]", "result": "Shows an extremely dramatic effect."}]}, {"molecule": "O=C(CC1CCCCC1)N/N=C\\c1cccc2cccc(O)c12", "note": "[Compound 3]", "values": [{"measurement": "cytotoxicity / growth inhibition", "setting": "[4]; single agent", "result": "cytotoxic against human breast carcinoma cells"}, {"measurement": "pIC50", "setting": "[1]", "result": 6.65}]}, {"molecule": "O=C(CCCCCCCCC(=O)N/N=C/c1c(O)ccc2ccccc12)N/N=C/c1c(O)ccc2ccccc12", "note": "[Drug 1]", "values": [{"measurement": "pIC50", "setting": "[5]", "result": "5.70 to 6.10"}, {"measurement": "ACTIVITY", "setting": "[5]", "result": "Steady effect on all three cell lines"}, {"measurement": "pIC50", "setting": "[2]", "result": "≥ 6.00"}, {"measurement": "ACTIVITY", "setting": "[2]; DNA synthesis assay, exposed for 2 continuous days", "result": "most potent"}]}]}
